ChEMBL document CHEMBL4814068, “Synthesis and structure-activity relationships of new chiral spiro-β-lactams highly active against HIV-1 and Plasmodium” (Eur J Med Chem, 2021)

tested on: not listed separately; experiment: Cytotoxicity against human TZM-bl cells assessed as reduction in cell viability by AlamarBlue assay; assay type: cell-based; conditions: not given

Compound | CC50 [µM]
CC1(C)S[C@H]2N(C(=O)C23C[C@@H]2CN=N[C@]2(C(=O)OCc2ccccc2)C3C(=O)c2ccccc2)[C@H]1C(=O)OC(c1ccccc1)c1ccccc1 (some centres undefined) | 41.8
CC1(C)S[C@H]2N(C(=O)C23C=C(C(=O)Oc2ccc4ccccc4c2)N=N3)[C@H]1C(=O)O (some centres undefined) | 68.6
CC1(C)S[C@H]2N(C(=O)C23C=C(C(=O)Oc2ccc4ccccc4c2)N=N3)[C@H]1C(=O)OC(c1ccccc1)c1ccccc1 (some centres undefined) | 49.1
CC(C)(C)OC(=O)C1=CC2(N=N1)C(=O)N1[C@@H](C(=O)OC(c3ccccc3)c3ccccc3)C(C)(C)S[C@@H]12 (some centres undefined) | 55.1
CCOC(=O)C1=CCC(C(=O)c2ccccc2)C12C(=O)N1[C@@H](C(=O)OC(c3ccccc3)c3ccccc3)C(C)(C)S[C@@H]12 (some centres undefined) | 57.1
COC(=O)C1=CCC(C(=O)c2ccccc2)C12C(=O)N1[C@@H](C(=O)OC(c3ccccc3)c3ccccc3)C(C)(C)S[C@@H]12 (some centres undefined) | 54.9
CC(C)(C)OC(=O)C1=CCC(C(=O)c2ccccc2)C12C(=O)N1[C@@H](C(=O)OC(c3ccccc3)c3ccccc3)C(C)(C)S[C@@H]12 (some centres undefined) | 43.2
CC(C)(C)OC(=O)C1=CC2(N=N1)C(=O)N1[C@@H](C(=O)O)C(C)(C)S[C@@H]12 (some centres undefined) | 79
COC(=O)C1=CC2(N=N1)C(=O)N1[C@@H](C(=O)OC)C(C)(C)S[C@@H]12 (some centres undefined) | 89.8
CC1(C)S[C@H]2N(C(=O)C23C(C(=O)OCc2ccccc2)=CCC3C(=O)c2ccccc2)[C@H]1C(=O)O (some centres undefined) | 56.6
CC(C)(C)OC(=O)C1=CCC2(C(=O)N3[C@@H](C(=O)OC(c4ccccc4)c4ccccc4)C(C)(C)S[C@@H]32)C1C(=O)c1ccccc1 (some centres undefined) | 44.4
CCOC(=O)C1=CCC2(C(=O)N3[C@@H](C(=O)OC(c4ccccc4)c4ccccc4)C(C)(C)S[C@@H]32)C1C(=O)c1ccccc1 (some centres undefined) | 59
CCOC(=O)C1=CC2(N=N1)C(=O)N1[C@@H](C(=O)O)C(C)(C)S[C@@H]12 (some centres undefined) | 83.8
CC1(C)S[C@H]2N(C(=O)C23N=NC(C(=O)OC(c2ccccc2)c2ccccc2)=C3C(=O)OC(c2ccccc2)c2ccccc2)[C@H]1C(=O)OC(c1ccccc1)c1ccccc1 (some centres undefined) | 33.5
CC1(C)S[C@H]2N(C(=O)C23C=C(C(=O)OC(c2ccccc2)c2ccccc2)N=N3)[C@H]1C(=O)OC(c1ccccc1)c1ccccc1 (some centres undefined) | 54.4
CC1(C)S[C@H]2N(C(=O)C23C=C(C(=O)O)N=N3)[C@H]1C(=O)O (some centres undefined) | 101
CC1(C)S[C@H]2N(C(=O)C23CC=C(C(=O)OCc2ccccc2)C3C(=O)OCc2ccccc2)[C@H]1C(=O)OC(c1ccccc1)c1ccccc1 (some centres undefined) | 43.2
COC(=O)C1=CCC2(C(=O)N3[C@@H](C(=O)OC(c4ccccc4)c4ccccc4)C(C)(C)S[C@@H]32)C1C(=O)c1ccccc1 (some centres undefined) | 53.2
COC(=O)[C@@H]1N2C(=O)C3(C(C(=O)OCc4ccccc4)=CCC3C(=O)c3ccccc3)[C@H]2SC1(C)C (some centres undefined) | 55.4
CCOC(=O)C1=CC2(N=N1)C(=O)N1[C@@H](C(=O)OC(c3ccccc3)c3ccccc3)C(C)(C)S[C@@H]12 (some centres undefined) | 46.9
CC1(C)S[C@H]2N(C(=O)C23NN=C(C(=O)OCc2ccccc2)C3C(=O)c2ccccc2)[C@H]1C(=O)OC(c1ccccc1)c1ccccc1 (some centres undefined) | 17.2
CC1(C)S[C@H]2N(C(=O)C23CC=C(C(=O)OCc2ccccc2)C3C(=O)c2ccccc2)[C@H]1C(=O)O (some centres undefined) | 60.3
COC(=O)C1=CC2(N=N1)C(=O)N1[C@@H](C(=O)NO)C(C)(C)S[C@@H]12 (some centres undefined) | 76.8

tested on: Human immunodeficiency virus 2; experiment: Antiviral activity against HIV2 03PTHCC19 infected in human TZM-bl cells measured after 48 hrs by single round viral infectivity assay based Steady-Glo luciferase assay; assay type: functional, organism-based; conditions: Human immunodeficiency virus 2, 03PTHCC19, TZM-bl

Compound | IC50 [µM]
CC(=O)C1C(C(=O)OCc2ccccc2)=CCC12C(=O)N1[C@@H](C(=O)OC(c3ccccc3)c3ccccc3)C(C)(C)S[C@@H]12 (some centres undefined) | 0.51
CC1(C)S[C@H]2N(C(=O)C23CC=C(C(=O)OCc2ccccc2)C3C(=O)c2ccccc2)[C@H]1C(=O)OC(c1ccccc1)c1ccccc1 (some centres undefined) | 0.008

tested on: Human immunodeficiency virus 1; experiment: Antiviral activity against HIV1 SG3.1 infected in human TZM-bl cells assessed as inhibition of viral replication at 10 ug/ml measured after 48 hrs by single round viral infectivity assay based Steady-Glo luciferase assay; assay type: functional; conditions: Human immunodeficiency virus 1, SG3.1, TZM-bl

Compound | inhibition at 10 µg/mL [%]
CC1(C)S[C@H]2N(C(=O)C23C[C@@H]2CN=N[C@]2(C(=O)OCc2ccccc2)C3C(=O)c2ccccc2)[C@H]1C(=O)OC(c1ccccc1)c1ccccc1 (some centres undefined) | 0
CC1(C)S[C@H]2N(C(=O)C23C=C(C(=O)Oc2ccc4ccccc4c2)N=N3)[C@H]1C(=O)O (some centres undefined) | 0
CC1(C)S[C@H]2N(C(=O)C23C=C(C(=O)Oc2ccc4ccccc4c2)N=N3)[C@H]1C(=O)OC(c1ccccc1)c1ccccc1 (some centres undefined) | 0
CC(C)(C)OC(=O)C1=CC2(N=N1)C(=O)N1[C@@H](C(=O)OC(c3ccccc3)c3ccccc3)C(C)(C)S[C@@H]12 (some centres undefined) | 0
CCOC(=O)C1=CCC(C(=O)c2ccccc2)C12C(=O)N1[C@@H](C(=O)OC(c3ccccc3)c3ccccc3)C(C)(C)S[C@@H]12 (some centres undefined) | 0
COC(=O)C1=CCC(C(=O)c2ccccc2)C12C(=O)N1[C@@H](C(=O)OC(c3ccccc3)c3ccccc3)C(C)(C)S[C@@H]12 (some centres undefined) | 0
CC(C)(C)OC(=O)C1=CCC(C(=O)c2ccccc2)C12C(=O)N1[C@@H](C(=O)OC(c3ccccc3)c3ccccc3)C(C)(C)S[C@@H]12 (some centres undefined) | 0
CC(C)(C)OC(=O)C1=CC2(N=N1)C(=O)N1[C@@H](C(=O)O)C(C)(C)S[C@@H]12 (some centres undefined) | 0
COC(=O)C1=CC2(N=N1)C(=O)N1[C@@H](C(=O)OC)C(C)(C)S[C@@H]12 (some centres undefined) | 0
CC1(C)S[C@H]2N(C(=O)C23C(C(=O)OCc2ccccc2)=CCC3C(=O)c2ccccc2)[C@H]1C(=O)O (some centres undefined) | 0
CC(C)(C)OC(=O)C1=CCC2(C(=O)N3[C@@H](C(=O)OC(c4ccccc4)c4ccccc4)C(C)(C)S[C@@H]32)C1C(=O)c1ccccc1 (some centres undefined) | 0
CCOC(=O)C1=CCC2(C(=O)N3[C@@H](C(=O)OC(c4ccccc4)c4ccccc4)C(C)(C)S[C@@H]32)C1C(=O)c1ccccc1 (some centres undefined) | 99
CCOC(=O)C1=CC2(N=N1)C(=O)N1[C@@H](C(=O)O)C(C)(C)S[C@@H]12 (some centres undefined) | 0
CC1(C)S[C@H]2N(C(=O)C23N=NC(C(=O)OC(c2ccccc2)c2ccccc2)=C3C(=O)OC(c2ccccc2)c2ccccc2)[C@H]1C(=O)OC(c1ccccc1)c1ccccc1 (some centres undefined) | 0
CC1(C)S[C@H]2N(C(=O)C23C=C(C(=O)OC(c2ccccc2)c2ccccc2)N=N3)[C@H]1C(=O)OC(c1ccccc1)c1ccccc1 (some centres undefined) | 0
CC1(C)S[C@H]2N(C(=O)C23C=C(C(=O)O)N=N3)[C@H]1C(=O)O (some centres undefined) | 0
CC1(C)S[C@H]2N(C(=O)C23CC=C(C(=O)OCc2ccccc2)C3C(=O)OCc2ccccc2)[C@H]1C(=O)OC(c1ccccc1)c1ccccc1 (some centres undefined) | 0
COC(=O)C1=CCC2(C(=O)N3[C@@H](C(=O)OC(c4ccccc4)c4ccccc4)C(C)(C)S[C@@H]32)C1C(=O)c1ccccc1 (some centres undefined) | 99
COC(=O)[C@@H]1N2C(=O)C3(C(C(=O)OCc4ccccc4)=CCC3C(=O)c3ccccc3)[C@H]2SC1(C)C (some centres undefined) | 0
CCOC(=O)C1=CC2(N=N1)C(=O)N1[C@@H](C(=O)OC(c3ccccc3)c3ccccc3)C(C)(C)S[C@@H]12 (some centres undefined) | 0
CC1(C)S[C@H]2N(C(=O)C23CC=C(C(=O)OCc2ccccc2)C3C(=O)c2ccccc2)[C@H]1C(=O)O (some centres undefined) | 0
COC(=O)C1=CC2(N=N1)C(=O)N1[C@@H](C(=O)NO)C(C)(C)S[C@@H]12 (some centres undefined) | 0

tested on: Plasmodium berghei; experiment: Antiplasmodial activity against hepatic stage of Plasmodium berghei infected in human Huh7 cells assessed as reduction in parasite growth treated 1 hr prior to infection and measured after 48 hrs by firefly luciferase based bioluminescence assay; assay type: functional, organism-based; conditions: Huh-7

Compound | IC50 [µM]
CC(=O)C1C(C(=O)OCc2ccccc2)=CCC12C(=O)N1[C@@H](C(=O)OC(c3ccccc3)c3ccccc3)C(C)(C)S[C@@H]12 (some centres undefined) | < 5
CC1(C)S[C@H]2N(C(=O)C23CC=C(C(=O)OCc2ccccc2)C3C(=O)c2ccccc2)[C@H]1C(=O)OC(c1ccccc1)c1ccccc1 (some centres undefined) | 0.55
CCOC(=O)C1=CCC2(C(=O)N3[C@@H](C(=O)OC(c4ccccc4)c4ccccc4)C(C)(C)S[C@@H]32)C1C(=O)c1ccccc1 (some centres undefined) | 1.92
COC(=O)C1CC2(N=N1)C(=O)N1[C@@H](C(=O)OC(c3ccccc3)c3ccccc3)C(C)(C)S[C@@H]12 (some centres undefined) | < 10
COC(=O)C1=CCC2(C(=O)N3[C@@H](C(=O)OC(c4ccccc4)c4ccccc4)C(C)(C)S[C@@H]32)C1C(=O)c1ccccc1 (some centres undefined) | 2.29

tested on: Plasmodium falciparum; experiment: Antiplasmodial activity against blood stage of Plasmodium falciparum NF54 assessed as inhibition of parasite growth measured after […] by SYBR green 1 dye based flow cytometry; assay type: functional, organism-based; conditions: not given

Compound | IC50 [µM]
CC1(C)S[C@H]2N(C(=O)C23CC=C(C(=O)OCc2ccccc2)C3C(=O)c2ccccc2)[C@H]1C(=O)OC(c1ccccc1)c1ccccc1 (some centres undefined) | 0.43
CCOC(=O)C1=CCC2(C(=O)N3[C@@H](C(=O)OC(c4ccccc4)c4ccccc4)C(C)(C)S[C@@H]32)C1C(=O)c1ccccc1 (some centres undefined) | 0.844
COC(=O)C1=CCC2(C(=O)N3[C@@H](C(=O)OC(c4ccccc4)c4ccccc4)C(C)(C)S[C@@H]32)C1C(=O)c1ccccc1 (some centres undefined) | 1.26

tested on: Human immunodeficiency virus 1; experiment: Antiviral activity against HIV1 SG3.1 infected in human TZM-bl cells measured after 48 hrs by single round viral infectivity assay based Steady-Glo luciferase assay; assay type: functional, organism-based; conditions: Human immunodeficiency virus 1, SG3.1, TZM-bl, 48 h

Compound | IC50 [µM]
CC(=O)C1C(C(=O)OCc2ccccc2)=CCC12C(=O)N1[C@@H](C(=O)OC(c3ccccc3)c3ccccc3)C(C)(C)S[C@@H]12 (some centres undefined) | 0.65
CC1(C)S[C@H]2N(C(=O)C23CC=C(C(=O)OCc2ccccc2)C3C(=O)c2ccccc2)[C@H]1C(=O)OC(c1ccccc1)c1ccccc1 (some centres undefined) | 0.014
CCOC(=O)C1=CCC2(C(=O)N3[C@@H](C(=O)OC(c4ccccc4)c4ccccc4)C(C)(C)S[C@@H]32)C1C(=O)c1ccccc1 (some centres undefined) | 0.305
COC(=O)C1CC2(N=N1)C(=O)N1[C@@H](C(=O)OC(c3ccccc3)c3ccccc3)C(C)(C)S[C@@H]12 (some centres undefined) | 0.012
COC(=O)C1=CCC2(C(=O)N3[C@@H](C(=O)OC(c4ccccc4)c4ccccc4)C(C)(C)S[C@@H]32)C1C(=O)c1ccccc1 (some centres undefined) | 0.058

same assay, conditions: Human immunodeficiency virus 1, SG3.1, TZM-bl; time 48 hrs

Compound | IC90 [µM]
CCOC(=O)C1=CCC2(C(=O)N3[C@@H](C(=O)OC(c4ccccc4)c4ccccc4)C(C)(C)S[C@@H]32)C1C(=O)c1ccccc1 (some centres undefined) | 0.479
COC(=O)C1=CCC2(C(=O)N3[C@@H](C(=O)OC(c4ccccc4)c4ccccc4)C(C)(C)S[C@@H]32)C1C(=O)c1ccccc1 (some centres undefined) | 0.233

tested on: Huh-7; experiment: Cytotoxicity against human Huh-7 cells assessed as reduction in cell viability by AlamarBlue assay; assay type: cell-based; conditions: not given

Compound | Activity
CCOC(=O)C1=CCC2(C(=O)N3[C@@H](C(=O)OC(c4ccccc4)c4ccccc4)C(C)(C)S[C@@H]32)C1C(=O)c1ccccc1 (some centres undefined) | Non-Toxic
COC(=O)C1=CCC2(C(=O)N3[C@@H](C(=O)OC(c4ccccc4)c4ccccc4)C(C)(C)S[C@@H]32)C1C(=O)c1ccccc1 (some centres undefined) | Non-Toxic
